Test results as given in PMC5612753, “New lipases by mining of Pleurotus ostreatus genome” (PLoS ONE, 2017).

Assays:
PleoLip369 = tested on: T1, PleoLip369; experiment: spectrophotometric p-nitrophenol release, […] nm; non-linear regression; assay type: biochemical, Pleurotus ostreatus; conditions: pH 8; substrate 0.001-1 mM
T1 construct: signal peptide removed, codon-optimised synthetic gene behind alpha-factor signal, secreted from Pichia pastoris BG-10, purified by CM Sepharose; catalytic Ser266, Asp394, His512, pentapeptide GESAG

PleoLip241 = tested on: T2, PleoLip241; experiment: as above; assay type: biochemical, Pleurotus ostreatus; conditions: pH 8; substrate 0.001-1 mM
T2 construct: signal peptide removed, codon-optimised synthetic gene behind alpha-factor signal, secreted from Pichia pastoris BG-10, purified by CM Sepharose; catalytic Ser273, Asp403, His520, pentapeptide GQSAG

| Compound | Km (PleoLip369) | Km (PleoLip241) |
| --- | --- | --- |
| CCCCCCCC(=O)Oc1ccc([N+](=O)[O-])cc1 [pNP-C8, p-nitrophenyl octanoate] | 510 ± 60 µM |  |
| CCCCCCCCCC(=O)Oc1ccc([N+](=O)[O-])cc1 [pNP-C10, p-nitrophenyl decanoate] | 130 ± 20 µM | 30 ± 5 µM |
| CCCCCCCCCCCC(=O)Oc1ccc([N+](=O)[O-])cc1 [pNP-C12, p-nitrophenyl dodecanoate] | 652 ± 75 µM | 150 ± 6 µM |

Other lines, results leading:

| Km (PleoLip369) | Km (PleoLip241) | Compound |
| --- | --- | --- |
|  | 85 ± 4 µM | CCCCCCCCCCCCCC(=O)Oc1ccc([N+](=O)[O-])cc1 [pNP-C14, p-nitrophenyl myristate] |
|  | 350 ± 38 µM | CCCCCCCCCCCCCCCC(=O)Oc1ccc([N+](=O)[O-])cc1 [pNP-C16, p-nitrophenyl palmitate] |
